Assay results reported in patent publication US8629110B2, “Kv1.3 channel blocking substances for the treatment of diseases associated with intimal hyperplasia” (priority 2008, dated 2014).
Where two headings read alike, the source gives them in different places.

How the values were obtained:
Kv1.3 channel [1] = molecular target: T1, Kv1.3 channel (Homo sapiens, UniProt P22001); details: read-out: Affinity (Kd), cited from earlier work
Kv1.3 channel [2] = molecular target: T1, Kv1.3 channel; assay: Whole-cell patch-clamp in HEK cell transfected with the Kv1.3 channel; assay type: cell-based; details: 10 nM; potentials from +10 up to +80 mV; HEK cell transfected with Kv1.3
Source text: FIG. 3. Example of the assay for determining if a substance is a Kv1.3 channel blocker. […] The amplitude of the maximum current evoked by each voltage pulse is depicted in panel B depending on the value of the membrane potential, with which the current (I) voltage (V) curve is constructed for the three situations.
To evaluate if a substance is capable of dose-dependently reducing the flow of current through Kv1.3 (i.e., if it is a Kv1.3 blocker). The currents through the Kv1.3 channels expressed in the heterologous system were studied by means of the patch-clamp technique in the whole-cell configuration. The currents were recorded at room temperature (21-25° C.). The cells, placed in a recording chamber located in an inverted microscope, were perfused with a physiological saline solution (in mM: 141 NaCl, 4.7 KCl, 1.2 MgCl2, 1.8 CaCl2, 10 glucose and 10 HEPES (pH 7.4 with NaOH). The recording pipettes were made from borosilicate glass (2.0 mm OD, WPI) with a pipette puller (Narishige PP-83) so that they have resistances between 2 and 5 MΩ upon filling them with an internal solution containing (in mM) 125 KCl, 4 MgCl2, 10 HEPES, 10 EGTA, 5 MgATP; (pH 7.2 with KOH). The whole-cell currents were recorded with an Axopatch 200 amplifier or the like, filtering at 2 kHz and sampling at 10 kHz. […]

[3] = tested on: VSMCs of the human uterine artery; assay: Proliferation of VSMCs in culture (BrdU incorporation); assay type: cell-based; details: 10 nM; 24 hours; medium with 5% serum
Protocol: FIG. 8. Effect of the Kv1.3 channel blockers on the proliferation of the VSMCs of the human uterine artery. […] Again, these experiments were conducted in cells in control medium and cells in which the margatoxin or PAP was added to the medium.
For the proliferation studies, the fraction of cells incorporating 5-bromo-2′-deoxyuridine (BrdU) was determined. BrdU is a thymidine analog which can be incorporated in its place for the synthesis phase of the cell cycle. The cells incorporating BrdU can be detected by means of observation under a fluorescence microscope upon using a monoclonal antibody against this molecule and a secondary antibody conjugated with a fluorochrome. The assay was performed with a commercial kit (5-Bromo-2′-deoxy-uridine labeling and Detection Kit I; Roche Applied Science, Germany). The human uterine artery smooth muscle cells were grown for 48 hours in glass coverslips 12 mm in diameter in DMEM medium supplemented with serum and antibiotics as has been previously described, until reaching a confluence close to 50%. […] To quantify the results, the number of cells positive for BrdU with respect to the total number of cells in the field (which is determined by labeling the nuclei with the DAPI fluorescent dye) is counted in 10-20 fields in each experiment.

[4] = Swine stent model: pharmacokinetics (blood and arterial tissue levels); assay type: in vivo, pigs
Protocol: (§1) The total weight of the polymer with the drug is about 500 μg and the drug:polymer ratio is 30%. The stents are packed individually, coded with a bar code (to do a double blind experiment) and sterilized with ethylene oxide.
(§2) 36 stents (12 with the polymer alone, 12 with PAP and 12 with ShK) are implanted in 12 young pigs (25-35 kg) in the anterior descending or circumflex branches of the left coronary artery or in the right coronary artery (at a proportion of 3 stents per animal). The animals recover from the operation and are sent back to the animal house where they receive a normal diet supplemented with aspirin (325 mg/d). Blood samples of the animals are obtained at 6, 12, 24, 48 and 96 hours to determine the plasma levels of PAP and ShK. At 7 (n=4) or 28 days (n=8) the animals are euthanized after performing a coronary arteriography for the quantitative analysis. In one animal of each group (7 and 28 days), after euthanasia the coronary arteries are dissected, the stent is removed and the samples are frozen in liquid nitrogen in order to determine different markers by means of Western blot of the tissues and to determine the levels of PAP and ShK in the arterial wall. In the rest of the animals, immediately after euthanasia the hearts are collected and the coronary arteries are fixed by perfusion of formalin at 10% for 30 minutes.

[5] = tested on: Swine animal model of restenosis (coronary artery intima); assay: Swine animal model for the treatment of restenosis: morphometric analysis of stented coronary arteries; assay type: in vivo, pigs
Protocol: as §1, §2
A morphometric analysis is performed measuring the degree of endothelialization of the stent area, the content of VSMCs in the intima and its thickness in relation to the thickness of the vessel and the lumen area (see FIG. 9).

Kv1.3 channels = molecular target: T2, Kv1.3 channels (Mus musculus, UniProt P16390); assay: Whole-cell patch-clamp of Kv currents in contractile and cultured VSMCs of mouse femoral arteries; assay type: cell-based; details: 10 nM, pulse to +40 mV
T2 construct: endogenous in cells; host or cells: freshly dissociated and cultured VSMCs from femoral arteries of BPN mice
T2 sequence (P16390 whole entry): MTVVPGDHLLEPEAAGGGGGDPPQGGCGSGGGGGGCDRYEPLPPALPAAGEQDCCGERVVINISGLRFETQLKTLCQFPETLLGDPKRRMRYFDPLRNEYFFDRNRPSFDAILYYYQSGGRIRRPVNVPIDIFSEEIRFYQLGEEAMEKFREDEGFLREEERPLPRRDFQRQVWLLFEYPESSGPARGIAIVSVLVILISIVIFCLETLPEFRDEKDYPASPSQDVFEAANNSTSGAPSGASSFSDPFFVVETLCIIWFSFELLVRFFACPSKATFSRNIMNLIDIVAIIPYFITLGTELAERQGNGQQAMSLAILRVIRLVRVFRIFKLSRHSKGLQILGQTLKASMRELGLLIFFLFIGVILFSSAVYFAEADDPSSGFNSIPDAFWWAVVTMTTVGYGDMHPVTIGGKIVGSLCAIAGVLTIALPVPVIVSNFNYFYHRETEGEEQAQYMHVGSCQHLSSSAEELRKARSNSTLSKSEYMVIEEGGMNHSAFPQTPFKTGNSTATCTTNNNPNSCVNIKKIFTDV
Protocol: To isolate the VSMCs (model of cells in contractile phenotype), the animals were sacrificed by decapitation after anesthesia with isoflurane (5% at 2.5 I O2 min^−1).
To obtain the VSMCs in culture (in vitro model of proliferative phenotype), small fragments (0.5 mm) of femoral arteries free of endothelium and connective tissue were placed in 35 mm Petri culture dishes covered with 2% gelatin (Type B, Sigma) in a DMEM culture medium with 20% of fetal bovine serum, 100 U/ml penicillin, 100 U/ml streptomycin and 2 mM L-glutamine at 37° C. in a 5% CO2 atmosphere. The migration and proliferation of the VSMCs of these explants was clear at 6-10 days, but the explants were maintained until the single layer of VSMC was confluent. At this time, by means of mechanical scraping with a rubber spatula the cells were shed and seeded in a new culture dish at ⅓ of their original density. The VSMCs were thus subjected to several passes (3-4) without showing apparent morphological changes.
The drugs were prepared at the final concentrations indicated in the saline solution of the bath following the supplier's instructions and were applied to the cells for a period of 1-2 minutes. The currents were recorded before applying the drug (control) and in the presence of the drug, and the percentage of reduction in the amplitude of the currents induced by different blockers was calculated.

T1 sequence (P22001 whole entry): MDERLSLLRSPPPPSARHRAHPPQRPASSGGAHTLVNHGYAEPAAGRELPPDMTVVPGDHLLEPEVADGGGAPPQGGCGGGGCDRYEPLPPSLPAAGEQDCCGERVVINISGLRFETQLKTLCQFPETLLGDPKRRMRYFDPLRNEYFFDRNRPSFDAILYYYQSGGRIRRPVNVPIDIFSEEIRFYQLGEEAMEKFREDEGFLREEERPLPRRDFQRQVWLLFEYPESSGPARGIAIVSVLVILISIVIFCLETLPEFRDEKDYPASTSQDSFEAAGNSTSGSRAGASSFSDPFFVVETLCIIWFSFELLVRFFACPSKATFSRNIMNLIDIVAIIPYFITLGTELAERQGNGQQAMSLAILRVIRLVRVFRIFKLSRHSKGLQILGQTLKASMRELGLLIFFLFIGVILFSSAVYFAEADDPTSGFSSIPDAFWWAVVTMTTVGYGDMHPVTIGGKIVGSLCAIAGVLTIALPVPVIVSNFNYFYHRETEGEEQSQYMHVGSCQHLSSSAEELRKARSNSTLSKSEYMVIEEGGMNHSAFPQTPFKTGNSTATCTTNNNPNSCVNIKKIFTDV

| Molecule | Kd (Kv1.3 channel [1]; Kv1.3 channel) | further results |
| --- | --- | --- |
| CCCCC/N=c1\ccn(Cc2ccccc2)c2ccccc12 [CP339818] | – | Kd (Kv1.3 channel [1]): 0.15 µM |
| COc1cc(CNC(=O)CCCC/C=C/C(C)C)ccc1O [Capsaicin] | 26 µM | – |
| CCC[C@@H](O)/C=C/C=C/C=C/C#CC#CCCCO [Cicutotoxin] | 18 µM | – |
| [Co+2] [Co^2+] | 200 µM | – |
| C=C1C[C@@]2(O)[C@@H]3CC[C@@]4(C)[C@@H]5C=CC(=O)OC[C@]5(C(C)OC(C)=O)[C@@H](OC(C)=O)[C@@H](OC(C)=O)[C@@H]4[C@@]3(C)[C@H](OC(C)=O)[C@H](OC(C)=O)[C@@]2(C)C2(C(=O)OC)O[C@H]12 (stereo partly drawn) [Correolide] | – | Kd (Kv1.3 channel [1]): 0.09 µM |
| COc1ccc([C@@H]2Sc3ccccc3N(CCN(C)C)C(=O)[C@@H]2OC(C)=O)cc1 [Diltiazem] | 27 µM | – |
| O=C(NCC1CCCCN1)c1cc(OCC(F)(F)F)ccc1OCC(F)(F)F (stereo not drawn) [Flecainide] | 60 µM | – |
| [Hg+2] [Hg^2+] | 10 µM | – |
| [La+3] [La^3+] | 20 µM | – |
| O=c1cc(-c2ccc(O)c(O)c2)oc2cc(O)cc(O)c12 [Luteolin] | 50 µM | – |
| COC(=O)C1=C(C)NC(C)=C(C(=O)OC)C1c1ccccc1[N+](=O)[O-] [Nifedipine] | 5 µM | – |
| CCOC(=O)C1=C(C)NC(C)=C(C(=O)OC)C1c1cccc([N+](=O)[O-])c1 (stereo not drawn) [Nitrendipine] | 5 µM | – |
| O=c1ccc2c(OCCCCOc3ccccc3)c3ccoc3cc2o1 [PAP-1] | – | reduction of the current (Kv1.3 channel [2]): 80-85%; fraction of cells labeled with BrdU (proliferation) [3]: a lower number of labeled nuclei is observed; blood levels, maximal ([4]; 6 hours after implanting the stent, stent with 200 μg drug): about 3 ng/ml; content in the arterial tissue ([4]; at 7 days): 97 ng/artery; content in the arterial tissue ([4]; at 28 days): 30 ng/artery; number of VSMCs in the intima ([5]; drug-coated stent versus control stent): significantly decreased; intimal area ([5]; drug-coated stent, 5.07 mm^2 in control): 2.23 mm^2; degree of stenosis ([5]; drug-coated stent, 45% in control): 27% |
| c1ccc(C2(N3CCCCC3)CCCCC2)cc1 [Phencyclidine] | 5 µM | – |
| CC(=O)[C@H]1CC[C@H]2[C@@H]3CCC4=CC(=O)CC[C@]4(C)[C@H]3CC[C@]12C [Progesterone] | 30 µM | – |
| C=C[C@H]1C[N@@]2CC[C@H]1C[C@H]2[C@H](O)c1ccnc2ccc(OC)cc12 [Quinine] | 14 µM | – |
| C=C(C)[C@]12C[C@@H](C)[C@@]34O[C@](Cc5ccccc5)(O[C@@H]1[C@@H]3C=C(COC(=O)Cc1ccc(O)c(OC)c1)C[C@]1(O)C(=O)C(C)=C[C@@H]41)O2 [Resiniferatoxin] | 3 µM | – |
| CC[C@H](C)[C@@H]1NC(=O)[C@@H](NC(=O)[C@H](CO)NC(=O)[C@@H](N)CCCNC(=N)N)CSSC[C@@H](C(=O)O)NC(=O)[C@H]([C@@H](C)O)NC(=O)CNC(=O)[C@@H]2CSSC[C@@H]3NC(=O)[C@H](CCC(N)=O)NC(=O)[C@H](Cc4ccccc4)NC(=O)[C@H](C)NC(=O)[C@H]([C@@H](C)O)NC(=O)[C@H](CSSC[C@H](NC(=O)[C@H](Cc4ccccc4)NC(=O)[C@H](CO)NC(=O)[C@H](CC(C)C)NC(=O)[C@H](CCCNC(=N)N)NC(=O)[C@H](Cc4ccc(O)cc4)NC(=O)[C@H](CCCCN)NC(=O)[C@H](CCSC)NC(=O)[C@H](CO)NC(=O)[C@H](Cc4cnc[nH]4)NC(=O)[C@H](CCCCN)NC3=O)C(=O)N[C@@H](CCCNC(=N)N)C(=O)N[C@@H](CCCCN)C(=O)N[C@@H]([C@@H](C)O)C(=O)N2)NC(=O)[C@H](CCCNC(=N)N)NC(=O)[C@H](CO)NC(=O)[C@H](CCCCN)NC(=O)[C@@H]2CCCN2C(=O)[C@H]([C@@H](C)CC)NC(=O)[C@H]([C@@H](C)O)NC(=O)[C@H](CC(=O)O)NC1=O [ShK] | – | level at 96 h ([4]; pig, in vivo, 200 ug per stent, at 4 days, below the limit of detection): < 0.2 ng/mL |
| CC[N+](CC)(CC)CC [TEA, tetraethylammonium chloride] | 10000 µM | – |
| CN1CCN(CCCN2c3ccccc3Sc3ccc(C(F)(F)F)cc32)CC1 [Trifluoperazine] | 20 µM | – |
| COc1ccc(CCCN2CCC(COC(c3ccccc3)c3ccccc3)CC2)cc1 [UK78282] | 0.2 µM | – |
| [Zn+2] [Zn^2+] | 200 µM | – |

| Molecule | Kd (Kv1.3 channel [1]; Kv1.3 channel) | further results |
| --- | --- | --- |
| Agiotoxin-2 | 0.0002 µM | – |
| Bunodosoma granulifera toxin | 0.039 µM | – |
| Buthus martensii Karsch toxin | 0.00079 µM | – |
| Charybdotoxin | 0.003 µM | – |
| Dendrotoxin | 0.25 µM | – |
| Heterometrus spinifer toxin 1 | 1.2e-05 µM | – |
| Hongotoxin | 8.6e-05 µM | – |
| Kaliotoxin | 0.00065 µM | – |
| Margatoxin | 0.00011 µM | current blocked, of the Kv current (Kv1.3 channels; VSMCs in culture): 58.15±4.54; current blocked, of the Kv current (Kv1.3 channels; contractile VSMCs): 10.6±2.03; fraction of cells labeled with BrdU (proliferation) [3]: a lower number of labeled nuclei is observed |
| Maurotoxin (VSCTGSKDCYAPCRKQTGCPNAKCINKSCKCYGC; UniProt P80719 1-34, looked up) | 0.15 µM | – |
| Noxiustoxin (TIINVKCTSPKQCSKPCKELYGSSAGAKCMNGKCKCYNN; UniProt P08815 1-39, looked up) | 0.001 µM | – |
| Odonthobthus doriae toxin 2 [Odonthobthus doriae toxin 2 (OdK2)] | 0.007 µM | – |
| Pandinus imperator toxin 1 | 0.011 µM | – |
| Pandinus imperator toxin 2 | 5e-05 µM | – |
| Pandinus imperator toxin 3 | 0.0005 µM | – |
| Parabuthus toxin 1 | 0.8 µM | – |
| Parabuthus toxin 3 | 0.492 µM | – |
| Stichodactyla helianthus toxin [Stichodactyla helianthus toxin (ShK)] | 1.1e-05 µM | – |
| Stichodactyla helianthus toxin—fluorescein-6-carboxylic acid [ShK-F6CA] | 4.8e-05 µM | – |
| Titystoxin-Kα | 0.004 µM | – |
| trans-N-propyl-carbamoyloxy-PAC | 0.05 µM | – |
| κ-Hefutoxin | 40 µM | – |
